What was measured:
[1] = test system: SV40 early promoter with three E2F binding sites (SV/E2F); assay: CAT reporter transcription assay, SV/E2F-CAT; type: cell-based; conditions: A31 cells
Description: (§1) The effect of the human SDI-1 on transcription driven by two E2F-responsive promoters was determined. Proliferating A31 cells were transfected with an SDI-1 expression vector in which the SDI-1 cDNA was driven by the strong constitutive cytomegalovirus early promoter (CMV) together with a reporter vector in which the chloramphenicol acetyltransferase (CAT) gene was driven by either the hamster dihydrofolate reductase (DHFR) promoter or the human cdc2 promoter (cdc2-CAT). A31 cells are Balb/c murine 3T3 fibroblasts whose origin and growth properties have been described (Lu, K. et al., Molec. Cell. Biol. 9:3411-3417 (1989); Dimri, G. P et al., J. Biol. Chem. 269:16180-16186 (1994), herein incorporated by reference). Cells were transfected with 2 μg of expression vectors, reporters vectors (for transactivation) and the CMV-β-gal identification/normalization vector using Lipofectamine (Gibco-BRL), as described by Dimri, G. P et al. (J. Biol. Chem. 269:16180-16186 (1994), herein incorporated by reference), The vector backbone was added to the mixture as needed to equalize the amount of transfected DNA. […]
(§2) To more critically ascertain whether the inhibition of transcription by SDI-1 was E2F-dependent, three E2F binding sites were inserted into the SV40 early promoter and the effect of CMV-SDI-1 on CAT activity driven by this modified promoter (SV/E2F) was determined. […]

A31 cells = assay: DNA synthesis in transfected (β-galactosidase positive) cells, radiolabeled nuclei; type: cell-based, murine
Description: The effect of the human SDI-1 on transcription driven by two E2F-responsive promoters was determined. Proliferating A31 cells were transfected with an SDI-1 expression vector in which the SDI-1 cDNA was driven by the strong constitutive cytomegalovirus early promoter (CMV) together with a reporter vector in which the chloramphenicol acetyltransferase (CAT) gene was driven by either the hamster dihydrofolate reductase (DHFR) promoter or the human cdc2 promoter (cdc2-CAT). A31 cells are Balb/c murine 3T3 fibroblasts whose origin and growth properties have been described (Lu, K. et al., Molec. Cell. Biol. 9:3411-3417 (1989); Dimri, G. P et al., J. Biol. Chem. 269:16180-16186 (1994), herein incorporated by reference). Cells were transfected with 2 μg of expression vectors, reporters vectors (for transactivation) and the CMV-β-gal identification/normalization vector using Lipofectamine (Gibco-BRL), as described by Dimri, G. P et al. (J. Biol. Chem. 269:16180-16186 (1994), herein incorporated by reference), The vector backbone was added to the mixture as needed to equalize the amount of transfected DNA. Seventy-two hours later, the cells were lysed and assayed for chloramphenicol acetyl transferase (CAT) and β-galactosidase activity. Both DHFR and cdc2 were expressed by proliferating cells, largely due to E2F-mediated transcription that is dependent on E2F binding sites in the 5′ regulatory regions of these genes (Slansky, J. E. et al., Molec. Cell. Biol. 13:1610-1618 (1993); Dalton, S., EMBO J. 11:1797-1804 (1992)).
These mutants included a naturally occurring SDI-1 variant (p21pm) in which the serine at amino acid 31 was replaced by an arginine. This polymorphism has been detected in approximately 10% of normal human cells thus far examined, and appears to result in a slight reduction in the antiproliferative properties of SDI-1 (Table 17). A SDI-1 expression vector for this allele (CMV-p21pm) was compared with CMV-SDI-1 for ability to inhibit DNA synthesis and E2F-mediated transactivation in proliferating A31 cells. […]

[2] = test system: SV40 early promoter with mutant E2F binding sites (SV/E2Fm); assay: CAT reporter transcription assay, SV/E2Fm-CAT; type: cell-based; conditions: A31 cells
Description: as §1, §2

Substance: SDI-1: senescent cell derived inhibitor of DNA synthesis, 164 amino acid protein, SEQ ID NO:2
- Transcription (Normalized) % Activity [1]: 50%
- Transcription (Normalized) % Inhibition [1]: 50%
- inhibition (antiproliferative effect) (A31 cells; A31 cells): 65-75%
- DNA Synthesis % LN (A31 cells; percentage of transfected cells with radiolabeled nuclei): 17%
- DNA Synthesis % Inhibition (A31 cells; proliferating A31 cells): 75%
- Transcription (Normalized) % Activity [2]: 93%
- Transcription (Normalized) % Inhibition [2]: 7%

Reference: patent US6818215B2, “Antibodies to senescent cell-derived inhibiters of DNA synthesis” (priority 1991, dated 2004)
